Laboratory results from BindingDB's records for doi:10.1016/j.bmcl.2009.07.043 (Wyeth Research, 2009).

Test: Inhibition of human Src expressed in rat fibroblasts assessed as anchorage independent growth after 3 days

IC50: > 10 µM
SMILES: COc1cc(Nc2c(C#N)cnc3cc(-c4ncccc4CN4CCOCC4)ccc23)c(Cl)cc1Cl [4-(2,4-dichloro-5-methoxyphenylamino)-7-(3-(morpholinomethyl)pyridin-2-yl)quinoline-3-carbonitrile]
